The results in this text go back to patent US20230398130A1, “METHODS AND COMPOSITIONS FOR DIFFERENTIATING STEM CELLS” (Massachusetts Institute of Technology, priority 2020, published 2023).

The test system of test [1] is ISC-enriched organoids. The test is described as follows: Primary screen, 384-well 2.5-D organoid differentiation (ENR+CD, 6 days): basal lysozyme secretion (LYZ.NS). Format: cell-based, murine. As to conditions: primary screen; for Dose.FC.LYZ.NS (log 2 fold change): vs plate median. An excerpt:
(§1) High-throughput screening.

Test [2] has as its system ISC-enriched organoids. Kind of test: Primary screen, 384-well 2.5-D organoid differentiation (ENR+CD, 6 days): carbachol-induced lysozyme secretion (LYZ.S). The format is cell-based, murine. The following applies: primary screen, vs plate median.
Excerpt: as §1

For test [3], the system named is ISC-enriched organoids. The test is described as follows: Primary screen, 384-well 2.5-D organoid differentiation (ENR+CD, 6 days, Target Selective Inhibitor Library, vs whole-plate median): ATP (CellTiter-Glo 3D, CTG). As to conditions: primary screen; for Dose.FC.CTG (log 2 fold change): vs plate median. In general terms: In ATP-based viability assays light output follows the ATP content of the culture.

With `O=C(NCc1cccc(O)c1)Nc1nc(-c2ccncc2)cs1` [RKI-1447], the “Z.LYZ.NS (standard z score)” value is on record as −0.055 in the test with ISC-enriched organoids [1] (Dose 0.08 uM), −0.803 in the test on ISC-enriched organoids [1] (Dose 0.40 uM), −0.077 in the test with ISC-enriched organoids [1] (Dose 2.00 uM) and −1.594 with ISC-enriched organoids [1] (Dose 10.00 uM). For the same molecule, the “Dose.FC.LYZ.NS (log 2 fold change)” value is −0.006 in the test with ISC-enriched organoids [1] (Dose 0.08 uM), −0.092 in the test with ISC-enriched organoids [1] (Dose 0.40 uM), −0.009 in the test on ISC-enriched organoids [1] (Dose 2.00 uM) and −0.183 in the test on ISC-enriched organoids [1] (Dose 10.00 uM). The “Dose.FC.LYZ.S (log 2 fold change)” value is −0.056 with ISC-enriched organoids [2] (Dose 0.08 uM), −0.064 in the test with ISC-enriched organoids [2] (Dose 0.40 uM), −0.017 with ISC-enriched organoids [2] (Dose 2.00 uM) and −0.297 with ISC-enriched organoids [2] (Dose 10.00 uM). The “Z.CTG (standard z score)” value in the test with ISC-enriched organoids [3] (Dose 0.08 uM) is listed as −0.948; in the test with ISC-enriched organoids [3] (Dose 0.40 uM), −0.441; in the test on ISC-enriched organoids [3] (Dose 2.00 uM) it was −0.540; in the test on ISC-enriched organoids [3] (Dose 10.00 uM), −0.816. For the same molecule, the “Dose.FC.CTG (log 2 fold change)” value is −0.397 in the test with ISC-enriched organoids [3] (Dose 0.08 uM), −0.184 with ISC-enriched organoids [3] (Dose 0.40 uM), −0.226 in the test on ISC-enriched organoids [3] (Dose 2.00 uM) and −0.342 with ISC-enriched organoids [3] (Dose 10.00 uM).

Turning to `Cc1nnc(C(=O)NC(C)(C)c2nc(C(=O)NCc3ccc(F)cc3)c(O)c(=O)n2C)o1` [Raltegravir (MK-0518)], the “Z.LYZ.NS (standard z score)” value in the test on ISC-enriched organoids [1] (Dose 0.08 uM) worked out at 1.627; in the test with ISC-enriched organoids [1] (Dose 0.40 uM), 0.302; with ISC-enriched organoids [1] (Dose 2.00 uM), 0.254; in the test with ISC-enriched organoids [1] (Dose 10.00 uM), 0.366. For the same molecule, the “Dose.FC.LYZ.NS (log 2 fold change)” value with ISC-enriched organoids [1] (Dose 0.08 uM) was determined as 0.187; in the test with ISC-enriched organoids [1] (Dose 0.40 uM) it was 0.035; in the test on ISC-enriched organoids [1] (Dose 2.00 uM) it was 0.029; in the test on ISC-enriched organoids [1] (Dose 10.00 uM), 0.042. In addition, the “Dose.FC.LYZ.S (log 2 fold change)” value was found to be 0.137 in the test on ISC-enriched organoids [2] (Dose 0.08 uM), 0.037 with ISC-enriched organoids [2] (Dose 0.40 uM), 0.122 in the test with ISC-enriched organoids [2] (Dose 2.00 uM) and 0.183 in the test with ISC-enriched organoids [2] (Dose 10.00 uM). For the same molecule, the “Z.CTG (standard z score)” value is on record as 0.258 in the test with ISC-enriched organoids [3] (Dose 0.08 uM), 0.224 in the test with ISC-enriched organoids [3] (Dose 0.40 uM), 0.471 in the test on ISC-enriched organoids [3] (Dose 2.00 uM) and 0.407 in the test with ISC-enriched organoids [3] (Dose 10.00 uM). Moreover, the “Dose.FC.CTG (log 2 fold change)” value in the test with ISC-enriched organoids [3] (Dose 0.08 uM) turned out to be 0.108; in the test with ISC-enriched organoids [3] (Dose 0.40 uM), 0.094; with ISC-enriched organoids [3] (Dose 2.00 uM), 0.197; with ISC-enriched organoids [3] (Dose 10.00 uM) it was 0.170.

For `CO[C@H]1C[C@@H]2CC[C@@H](C)[C@@](O)(O2)C(=O)C(=O)N2CCCC[C@H]2C(=O)O[C@H]([C@H](C)C[C@@H]2CC[C@@H](OP(C)(C)=O)[C@H](OC)C2)CC(=O)[C@H](C)/C=C(\C)[C@@H](O)[C@@H](OC)C(=O)[C@H](C)C[C@H](C)/C=C/C=C/C=C/1C` [Ridaforolimus (Deforolimus, MK-8669)], the “Z.LYZ.NS (standard z score)” value turned out to be 0.041 in the test with ISC-enriched organoids [1] (Dose 0.08 uM), 1.012 in the test on ISC-enriched organoids [1] (Dose 0.40 uM), 0.646 with ISC-enriched organoids [1] (Dose 2.00 uM) and 0.237 with ISC-enriched organoids [1] (Dose 10.00 uM). The “Dose.FC.LYZ.NS (log 2 fold change)” value in the test with ISC-enriched organoids [1] (Dose 0.08 uM) turned out to be 0.005; in the test with ISC-enriched organoids [1] (Dose 0.40 uM), 0.116; with ISC-enriched organoids [1] (Dose 2.00 uM), 0.074; in the test with ISC-enriched organoids [1] (Dose 10.00 uM), 0.027. The “Dose.FC.LYZ.S (log 2 fold change)” value came to 0.050 with ISC-enriched organoids [2] (Dose 0.08 uM), 0.069 with ISC-enriched organoids [2] (Dose 0.40 uM), 0.019 in the test on ISC-enriched organoids [2] (Dose 2.00 uM) and 0.039 with ISC-enriched organoids [2] (Dose 10.00 uM). Moreover, the “Z.CTG (standard z score)” value is given as 1.011 in the test on ISC-enriched organoids [3] (Dose 0.08 uM), 0.157 in the test with ISC-enriched organoids [3] (Dose 0.40 uM), 0.659 in the test with ISC-enriched organoids [3] (Dose 2.00 uM) and 0.505 in the test on ISC-enriched organoids [3] (Dose 10.00 uM). The “Dose.FC.CTG (log 2 fold change)” value with ISC-enriched organoids [3] (Dose 0.08 uM) turned out to be 0.423; in the test with ISC-enriched organoids [3] (Dose 0.40 uM), 0.066; with ISC-enriched organoids [3] (Dose 2.00 uM), 0.276; with ISC-enriched organoids [3] (Dose 10.00 uM), 0.211.

For the molecule `COc1cc(OC)c(/C=C/S(=O)(=O)Cc2ccc(OC)c(NCC(=O)O)c2)c(OC)c1` [Rigosertib (ON-01910)], the “Z.LYZ.NS (standard z score)” value with ISC-enriched organoids [1] (Dose 0.08 uM) is reported as −2.105; in the test with ISC-enriched organoids [1] (Dose 0.40 uM) it was −1.831; in the test on ISC-enriched organoids [1] (Dose 2.00 uM), −2.306; with ISC-enriched organoids [1] (Dose 10.00 uM), −2.107. Besides, the “Dose.FC.LYZ.NS (log 2 fold change)” value with ISC-enriched organoids [1] (Dose 0.08 uM) was −0.242; in the test with ISC-enriched organoids [1] (Dose 0.40 uM) it was −0.210; in the test on ISC-enriched organoids [1] (Dose 2.00 uM), −0.265; in the test with ISC-enriched organoids [1] (Dose 10.00 uM), −0.242. The “Dose.FC.LYZ.S (log 2 fold change)” value in the test on ISC-enriched organoids [2] (Dose 0.08 uM) is −0.309; in the test on ISC-enriched organoids [2] (Dose 0.40 uM), −0.355; with ISC-enriched organoids [2] (Dose 2.00 uM) it was −0.340; in the test with ISC-enriched organoids [2] (Dose 10.00 uM), −0.330. Further, the “Z.CTG (standard z score)” value in the test with ISC-enriched organoids [3] (Dose 0.08 uM) was −2.162; with ISC-enriched organoids [3] (Dose 0.40 uM), −3.069; in the test on ISC-enriched organoids [3] (Dose 2.00 uM), −3.984; in the test with ISC-enriched organoids [3] (Dose 10.00 uM) it was −2.022. In addition, the “Dose.FC.CTG (log 2 fold change)” value is −0.905 with ISC-enriched organoids [3] (Dose 0.08 uM), −1.285 in the test with ISC-enriched organoids [3] (Dose 0.40 uM), −1.668 in the test on ISC-enriched organoids [3] (Dose 2.00 uM) and −0.847 in the test with ISC-enriched organoids [3] (Dose 10.00 uM).
